Publication PMC12668304, “A Triple Threat Against Ovarian Cancer: Os(II)‐Pt(IV)‐Ceritinib Conjugates for Photodynamic Therapy, Chemotherapy, and Immunogenic Cell Death Induction” (Angewandte Chemie (International Ed. in English), 2025)
Like-named read-outs stand apart in the source and are kept apart here.

Experiments:
A2780 cells = assay: (Photo-)cytotoxicity on 2D cell monolayers, resazurin assay; assay type: cell-based, human; details: A2780, normoxic, dark, 4 h exposure, total 48 h incubation, read-out: IC50 Dark
Experimental: (§1) The 2D cytotoxicity and phototoxicity profiles of Os‐Pt‐Cer and controls, were evaluated in a panel of cancerous cell lines, including A2780 (ovarian carcinoma), A549 (non‐small cell lung carcinoma), and MCA205 (murine fibrosarcoma), as well as a non‐cancerous retinal pigment epithelial cell line (RPE‐1). Cells were treated with the compounds (0.003–100 µM) for 4 h, either kept in the dark or irradiated at 670 nm (13.5 J cm^− ^2) (Table S4 and Figure S22) or 740 nm (12.6 J cm^− ^2) and viability was assessed 44 h post‐treatment. To verify robustness, the incubation was extended to 72 h. […]
(§2) Human ovarian cancer (A2780) cells and mouse fibrosarcoma cells (MCA205) were cultured in RPMI media. Retinal pigment epithelium (RPE -1) cells were cultured in DMEM/F -12 medium. Lung cancer cells (A549) were cultured in F -12K medium. These cell lines were complemented with 10% of fetal bovine serum, 100 U/mL penicillin -streptomycin mixture, and maintained in a humidified atmosphere […]
(§3) (Photo-)cytotoxicity on 2D cell monolayers
(§4) The cytotoxicity of the compounds was assessed by measuring cell viability using a resazurin assay.
(§5) The cells were seeded in triplicates in 96 well plates with a density of 10 4 cells per well in 100 μL of media. After 24 h, the medium was removed, and the cells were treated with increasing concentrations (0.003 → 100 µM) of the compounds diluted in cell media , achieving a total volume of 100 μL/well.
(§6) The cells were incubated with the compound for 4 h (final incubation time 48 h) or 24 h (final incubation time 72 h). After this time, the media was removed and replaced with 100 μL of fresh medium. For the phototoxicity studies, the cells were exposed to light with an Atlas Photonics LUMOS BIO irradiation system. Each well was constantly irradiated at 670 nm (60 min, 13.50 J·cm-2) or 740 nm (60 min, 12.60 J·cm-2). During the irradiation, the temperature of the plate was maintained at 37 °C. The cells were grown in the incubator for an additional 44 or 48 h, respectively. For the determination of the dark cytotoxicity, the cells were not irradiated and after the medium exchange directly incubated for 44 h.
(§7) After this time, the medium was replaced with fresh medium containing resazurin (0.2 mg/mL). After […]
(§8) 4 h of incubation, the conversion of resazurin into resorufin was determined upon excitation at 540 nm and measurement of its emission at 590 nm using a Cytation 5 Imaging Reader from BioTek. The obtained data was analysed with the GraphPad Prism software […]
(§9) After 24 h of incubation at 37 °C, 5% CO 2, plates were read using a SpectraMaxM2 Microplate Reader ( λexc = 540 nm; λread = 590 nm). Fluorescence data were normalised, and data were fitted using GraphPad Prism Software, and IC 50 was calculated by non - linear regression. Changes in the size and shape of MCTS were monitored every 24 h using Cytation 5 Imaging Reader from BioTek, objective x4.
(§10) Intracellular distribution by confocal fluorescence microscopy
(§11) 10^4 cells/well (A2780 cells) were seeded in complete medium (RPMI) in µ -slide 8 well (Ibidi) (100 µl/well) and left for 24 h to attach to the bottom. Then, the culture medium was removed , and 100 µl of solution of the corresponding complexes (5 µM) was added. The complexes were incubated with the cells for 4 hours. Thereafter, the medium was removed and replaced by RPMI without phenol red , and Hoechst and MitoTracker Green were added at a final concentration of 1 µg/mL. They were incubated with the cells for 30 min in the dark at 37 °C. Images were collected in a sequential mode in a Leica TCS SP8 confocal microscope with a 60x oil immers ion objective, a line average of 4, and a format of […]
(§12) (MTG)→ 500 -550nm, and 488 nm (complexes)→ 680 -730 nm. The confocal pinhole was 1 Airy unit.
(§13) Images were analysed with LAS X Flim FCS software.
(§14) Intracellular distribution by ICP -MS

RPE‐1 cells = assay: as above; assay type: cell-based; details: RPE‐1, normoxic, dark, 4 h exposure, total 48 h incubation, read-out: IC50 Dark
Experimental: as §1, §2, §3, §4, §5, §6, §7, §8, §9, §10, §11, §12, §13, §14

Which results are given for `Cc1cc(Nc2ncc(Cl)c(Nc3ccccc3S(=O)(=O)C(C)C)n2)c(OC(C)C)cc1C1CCNCC1` [Ceritinib]?
IC50 (A2780 cells; Homo sapiens): 2.61 ± 0.5 µM; IC50 (RPE‐1 cells; Homo sapiens): 4.76 ± 0.2 µM

What does the source list for `O=C1[O][Pt]2([NH][C@@H]3CCCC[C@H]3[NH]2)[O]C1=O` [Oxaliplatin]?
IC50 (A2780 cells): 46.15 ± 0.2 µM; IC50 (RPE‐1 cells): > 100 µM
